# Test results taken from US10047089B2, “Dihydro-6-azaphenalene derivatives for the treatment of CNS, oncological diseases and related disorders” (Collaborative Medicinal Development, LLC, priority 2012, dated 2018).
# Legend:
# [1] = target: T1, zinc induced Aß aggregates (Homo sapiens, UniProt P05067); assay: Bis-ANS fluorescence assay: reversal (disaggregation) of zinc induced Aß aggregates; assay type: biochemical; settings: bisANS assay, zinc induced aggregates (FIG. 1, solid arrow)
# T1 construct: Effect of bis-ANS on Aβ1-42 Solubility and Precipitation by Zn^2+
# Text: (§1) Measurement of inhibition or reversal of protein aggregation may be carried out using such assays as Bis-ANS Fluorescence as described in, for example, W. T. Chen et al., J. Biol. Chem, 2011, 286 (11), 9646, or thioflavin T assay as disclosed herein. FIG. 1 depicts the measurement of aggregation prevention by added zinc and disaggregation of zinc induced aggregates by AC047 in a bisANS assay. In the presence of soluble Aß, zinc induces aggregation within milliseconds. This aggregation is detected by an increase in bisANS fluorescence. An excess of EDTA serves as a control by binding zinc and preventing aggregation. Both prevention of aggregation and disaggregation can be detected in the assay. […] The compounds described above were evaluated for the inhibition and reversal of protein aggregation as carried out using such assays as Bis-ANS Fluorescence as described in, for example, J. Biol. Chem, 2011, 286 (11), 9646. All compounds prepared above were measured to show EC50 between 0.000001 to 0.10 mM in both assays in the presence of Zinc (II). Aβ1-42 (25 μM) in Tris-HCl buffer (50 mM, pH7.4) was incubated at RT for 10 min in the presence or absence of ZnCl2 (25 μM) and bis-ANS (50 μM). […] A sample of the supernatant was then collected and compared by dot blot for peptide content to the sample of starting material to quantify how much original peptide had been lost due to precipitation.
# [2] = target: T2, Aß (Homo sapiens, UniProt P05067); assay: Bis-ANS fluorescence assay: inhibition (prevention) of zinc induced Aß aggregation; assay type: biochemical; settings: bisANS assay, soluble Aß plus added zinc (FIG. 1, dotted arrow)
# T2 construct: Effect of bis-ANS on Aβ1-42 Solubility and Precipitation by Zn^2+
# Text: as §1
# T1 sequence (P05067 672-713): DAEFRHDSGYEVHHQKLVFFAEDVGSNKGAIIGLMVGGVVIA
# T2 sequence (P05067 672-713): as above
compound,measurement,setting,value
"O=C1c2ccnc3c(O)ccc(c23)C(=O)N1Cc1ccccc1 [AC047, 5-benzyl-9-hydroxy-4H-benzo[de][2,6]naphthyridine-4,6(5H)-dione]",elimination of zinc induced Aß aggregates (disaggregation),[1],can eliminate zinc induced Aß aggregates
same,prevention of zinc induced aggregation,[2],can prevent zinc induced aggregation
